In patent publication US12006313B1, “7-(4-((5-(benzylideneamino)-2-thioxo-1,3,4-thiadiazol-3(2H)-yl)methyl)piperazin-1-yl)-1-cyclopropyl-6-fluoro-4-oxo-1,4-dihydroquinoline-3-carboxylic acid as an anti-inflammatory and anticancer compound” (KING FAISAL UNIVERSITY, priority 2023, dated 2024):

Assays:
[1] = test system: human prostate cancer cells (PC3); test: Assessment of cytotoxicity by SRB assay, PC3; format: cell-based; conditions: 72 h
Experimental: (§1) The human prostate cancer cells (PC3) and human osteosarcoma cells (MG-63) were obtained from Nawah Scientific Inc. (Mokatam, Cairo, Egypt) and cultured in DMEM (Dulbecco's modified eagle's medium), Gibco, USA, supplemented with fetal bovine serum (FBS) at a concentration of 10% and 100 U/mL of penicillin and streptomycin (PS). The Cells were incubated at 37° C. in a humidified environment that contained 5% CO2.
(§2) Cells were seeded in 96-well plates as aliquots of 100 μL cell suspension and incubated in a complete media for 24 h. afterward, cells were treated with N′-(1-naphthoyloxy)-2-(benzo[d]thiazol-2-yl)acetimidamide at diverse concentrations ranging from 0.01 μM to 100 μM for 72 h. Then, cells were fixed at 4° C. for one hour with 150 μL of 10% trichloroacetic acid (TCA). After washing the cells five times with distilled water, 70 μL of sulforhodamine (SRB) solution (0.4% w/v) was added and incubated for 10 min at room temperature in a dark place. […] Then, 150 μL of Tris pH 10.5 (10 mM) was added, and the absorbance was measured at 540 nm using a BMG LABTECH®-FLUOstar Omega microplate reader (Ortenberg, Germany). Half maximal inhibitory concentrations (IC50) values were calculated for each experiment using GraphPad Prism 6 software. […]
(§3) The inhibition was calculated using the following equation: Inhibition %=100-Average Viability

[2] = test system: human osteosarcoma cells (MG-63); test: Assessment of cytotoxicity by SRB assay, MG-63; format: cell-based; conditions: MG-63 cells, 72 h
Experimental: as §1, §2, §3

[3] = molecular target: Bovine Serum Albumin (Bos taurus, UniProt P02769); test: Bovine Serum Albumin assay (BSA), inhibition of protein denaturation; format: biochemical; conditions: 0.4% w/v BSA, pH 6.4, 72° C. for 10 minutes, turbidity at 660 nm
Experimental: In vitro-inflammatory activities of the tested samples were determined using a modified method of the BSA assay reported by Williams et al. BSA solution (0.4%, w/v) was prepared in Tris Buffered Saline. The pH was adjusted to 6.4 with glacial acetic acid. Different dilutions of 20, 40, 60, 80, and 100 μg/mL of the stock solutions were added to test tubes containing 1 mL of 0.4%, w/v BSA buffer solution. Both negative (solvent) and positive (aspirin) controls were assayed in a similar manner. The solutions were then heated in a water bath at 72° C. for 10 minutes and cooled for 20 minutes under laboratory conditions. The turbidity of the solutions (level of protein precipitation) was measured at 660 nm in Spectrophotometer (V-770 UV-Visible/NIR Spectrophotometer).
The percentage inhibition of precipitation (protein denaturation) was determined relative to the negative control using the following equation:
[formula] % Anti-Denaturation Activity=% Inhibition of Protein Denaturation=% Anti-inflammatory Activity

Bovine Serum Albumin, sequence (P02769 25-607): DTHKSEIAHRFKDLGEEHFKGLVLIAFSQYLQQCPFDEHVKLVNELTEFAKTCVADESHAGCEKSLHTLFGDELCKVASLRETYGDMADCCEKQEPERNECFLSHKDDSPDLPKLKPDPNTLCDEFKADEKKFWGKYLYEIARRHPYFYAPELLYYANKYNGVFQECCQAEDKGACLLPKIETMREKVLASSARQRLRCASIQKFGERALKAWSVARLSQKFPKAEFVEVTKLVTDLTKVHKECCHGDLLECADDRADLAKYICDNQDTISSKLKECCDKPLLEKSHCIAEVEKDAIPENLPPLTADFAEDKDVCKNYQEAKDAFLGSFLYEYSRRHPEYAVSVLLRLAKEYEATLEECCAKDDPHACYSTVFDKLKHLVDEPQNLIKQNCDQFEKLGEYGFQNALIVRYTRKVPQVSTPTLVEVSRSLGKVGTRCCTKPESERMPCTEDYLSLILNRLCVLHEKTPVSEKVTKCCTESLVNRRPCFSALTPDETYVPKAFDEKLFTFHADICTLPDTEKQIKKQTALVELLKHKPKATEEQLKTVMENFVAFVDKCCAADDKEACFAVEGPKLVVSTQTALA

in vitro anti-inflammatory activity (inhibition of protein denaturation) [3]: considerable anti-inflammatory effect | melting point: 241 to 243 °C
Structure (SMILES): O=C(O)c1cn(C2CC2)c2cc(N3CCN(Cn4nc(/N=C/c5ccccc5)sc4=S)CC3)c(F)cc2c1=O [7-(4-((5-(benzylideneamino)-2-thioxo-1,3,4-thiadiazol-3(2H)-yl)methyl)piperazin-1-yl)-1-cyclopropyl-6-fluoro-4-oxo-1,4-dihydroquinoline-3-carboxylic acid]
antiproliferative activity [1]: excellent antiproliferative activities | antiproliferative activity [2]: excellent antiproliferative activities
